Source: patent US9532569B2 (INSTITUT NATIONAL DE LA RECHERCHE AGRONOMIQUE, priority 2012, dated 2017)

Key:
[1] = Stability in aqueous medium (UPLC, % nondegraded compound); type: physicochemical
Experimental: The stability in aqueous medium of the compound (IIa) according to the invention and that of GR24 as comparative compound was evaluated in the following way.
Each compound was diluted in acetone (1 ml), then 50 μl of each solution were diluted with methanol (175 μl) and water (750 μl) so as to obtain a compound concentration of 50 μg/ml.
The aqueous solution thus obtained was incubated at 21° C. in HPLC vials.
Indanol (25 μl of a solution at 1 mg/ml in acetone) was added to each solution in order to serve as an internal standard.
The degradation of each compound over time was monitored by analysis of samples taken from the solution at various time intervals, by Ultra Performance Liquid Chromatograpy (UPLC) by means of an Acquity UPLC HSS C18 column (1.8 μm, 2.1×50 mm), eluted first of all with a solution of acetonitrile at 5% in water containing 0.1% of formic acid, for 0.5 min, then with a gradient of 5% to 100% of acetonitrile in water containing 0.1% of formic acid, for 6.5 min, and with 100% of acetonitrile containing 0.1% of formic acid for 3 min. The column was maintained at a temperature of 40° C., with a flow of 0.6 ml/min.
The compounds eluted from the column were detected with a photodiode array detector.
The relative amount of nondegraded compound in the solution was determined by comparison with the internal standard.
In a second experiment, the stability in aqueous medium of the compounds (IIa) and (IIIb) according to the invention, and that of GR24 as comparative compound, was evaluated according to the protocol described above.

pea mutant rms1 = test: Inhibition of branching in the pea, application directly on the axillary bud; type: in vivo, Pisum sativum L.; details: Experiment 7, FIG. 9; 0.1 nM, 1 nM, 10 nM and 100 nM

CC1=C(C)C(Sc2ccc(Cl)cc2)OC1=O (stereo not drawn) [Compound (IIa), 5-((4-chlorophenyl)thio)-3,4-dimethylfuran-2(5H)-one]
chemical stability in aqueous solution (% of nondegraded compound as a function of incubation time) ([1]; 50 μg/ml of compound in methanol/water: 1/4, pH 6.7, 21° C., FIG. 1): very high chemical stability in aqueous solution, much higher than that of GR24 | chemical stability in aqueous solution (% of nondegraded compound as a function of incubation time) ([1]; second experiment, longer incubation times, 50 μg/ml in methanol/water: 1/4, pH 6.7, 21° C., FIG. 2): very high chemical stability in aqueous solution, much higher than that of GR24 | inhibitory activity on bud growth at node 4 (length of bud/branch 8 days after treatment at node 4) (pea mutant rms1): equivalent to that of GR24 at the strongest concentrations, and slightly better at the lowest concentration of 0.1 nM
